For 11 compounds, change in vivo and LD50 results are on record in patent publication US4261994A, “1,2,4-Oxadiazole derivatives, their preparation and pharmaceutical use” (Synthelabo, priority 1977, dated 1981).

Like-named read-outs stand apart in the source and are kept apart here.

The subject of data set [1] is spontaneously hypertonic male rats. Kind of data set: Anti-hypertensive activity in spontaneously hypertonic male rats (method of Gerold and Tschirky), systolic pressure by pulse at caudal artery. It is filed as in vivo. The following applies: Rattus norvegicus, po; for change in vivo at 20 mg/kg: administered dose 20 mg/kg orally; for change in vivo at 5 mg/kg: administered dose 5 mg/kg orally. The protocol: The anti-hypertensive activity is evaluated on spontaneously hypertonic male rats in accordance with the method of Gerold and Tschirky (Arzneim. Forsch, 1968, 18, 1,285). The systolic pressure is measured by taking the pulse at the level of the caudal artery. […]

Data set [2] can be described thus: Toxicity, 50% lethal dose, intraperitoneal administration to CD1 male rats. The following applies: rat, in vivo, ip; intraperitoneally to rats, fasted 18 hours; read-out: 50% lethal dose (LD 50). The procedure: The toxicity of the compounds (I) was determined by intraperitoneal administration to CD1 (Charles River) male rats weighing 100 to 120 g, which had fasted for 18 hours.

Setting [3] is: 4 hours, read-out: Anti-hypertensive activity %, 4 hours.
Setting [4] is: 24 hours, read-out: Anti-hypertensive activity %, 24 hours.

For `CN(C)c1noc(Cc2c(Cl)cccc2Cl)n1` [Compound 1], the change in vivo at 20 mg/kg in data set [1] (setting [3]) is -33%; in data set [1] (setting [4]) it was -14%.
On the same counts, the results for `CNc1noc(Cc2c(Cl)cccc2Cl)n1` [Compound 2, 3-Methylamino-5-(2,6-dichlorobenzyl)-1,2,4-oxadiazole] are -18% and -9%.
Consider `CN(C)CCCNc1noc(Cc2c(Cl)cccc2Cl)n1` [Compound 6], for which, in data set [2], the LD50 is less than 250 mg/kg. Also, the change in vivo at 20 mg/kg in data set [1] (setting [3]) is -5%; in data set [1] (setting [4]), -7%.
On the same counts, the results for `CN(C)C=Nc1noc(Cc2c(Cl)cccc2Cl)n1` [Compound 9] are more than 500 mg/kg, -29% and -15%.
As to `CN1CCN(C=Nc2noc(Cc3c(Cl)cccc3Cl)n2)CC1` [Compound 10], the LD50 in data set [2] is less than 500 mg/kg. For the same compound, the change in vivo at 20 mg/kg in data set [1] (setting [3]) is -29%.
On the same counts, the results for `OCCN(C=Nc1noc(Cc2c(Cl)cccc2Cl)n1)CCO` [Compound 11, 3-[N,N-Bis-(2-hydroxyethyl)-formamidino]-5-(2,6-dichlorobenzyl)-1,2,4-oxadiazole] are not below 500 mg/kg and -32%.
In the case of `Cc1cccc(C)c1Cc1nc(N=CN(C)C)no1` [Compound 14], the change in vivo at 20 mg/kg in data set [1] (setting [3]) was -22%; in data set [1] (setting [4]), -13%.
Regarding `CN(C)C=Nc1noc(Cc2c(F)cccc2Cl)n1` [Compound 15], the LD50 in data set [2] was not above 500 mg/kg. Also, the change in vivo at 5 mg/kg in data set [1] (setting [3]) is -26%; in data set [1] (setting [4]), -6%.
Take `Nc1noc(Cc2c(F)cccc2F)n1` [Compound 16]: the change in vivo at 5 mg/kg in data set [1] (setting [3]) was -18%; in data set [1] (setting [4]), -1%.
Consider `Nc1noc(Cc2c(Cl)cccc2Cl)n1` [Compound 18, 3-Amino-5-(2,6-dichlorobenzyl)-1,2,4-oxadiazole], for which the LD50 in data set [2] worked out at 250 mg/kg. Further, the change in vivo at 5 mg/kg was -18% in data set [1] (setting [3]) and -3% in data set [1] (setting [4]).
On the same counts, the results for `Nc1noc(Cc2cc(Cl)ccc2Cl)n1` [Compound 19] are not below 500 mg/kg, -18% and -3%.
